Patent US20090124691A1, “INHIBITOR OF INCREASE IN POSTPRANDIAL BLOOD INSULIN LEVEL” (Kao Corporation, priority 2006, published 2009)

Tested on: blood insulin level
Assay: Effect of monoacylglycerol in inhibiting postprandial increase in blood insulin level in mouse (oral emulsion, ELISA, AUC)
Assay type: in vivo, Male C57BL/6J mice
Conditions: mice, TAG compared with only glucose, MAG in an amount of 1/10 or 1/5 of that of TAG compared with TAG/MAG0 group
Experimental: Triolein was employed as a triacylglycerol, and 1-monoolein was employed as a monoacylglycerol.
Male C57BL/6J mice (eight weeks old) were divided into groups (eight mice each). Through a probe, mice of the respective groups were orally administered the following substance: only glucose (2 mg/g-body weight) (Glucose); glucose (2 mg/g-body weight) plus triolein (TAG) (2 mg/g-body weight) emulsified with egg yolk lecithin (0.02 mg/g-body weight) (TAG/MAGO); TAG/MAGO supplemented with 1-monoolein (MAG) of 0.08, 0.2 and 0.4 mg/g-body weight, respectively (TAG/MAG1, TAG/MAG2 and TAG/MAG3). […] Blood was collected from the orbital vein of each mouse over time until 30 minutes after oral administration, and blood insulin level was measured, followed by calculation of the area under the curve (AUC) of a graph. Blood insulin level was measured through ELISA (insulin assay kit, product of Morinaga Institute of Biological Science, Inc.).

## CCCCCCCC/C=C\CCCCCCCC(=O)OCC(O)CO (stereo not shown) [MAG, 1-monoolein]
  postprandial blood insulin level (amount of postprandial insulin secretion), result in words: decreased postprandial blood insulin level
